The values below come from patent US20130136809A1, “7-HYRDROXYFRULLANOLIDE ITS ANALOGS FOR PREVENTION CONTROL AND TREATMENT OF METABOLIC DISORDERS” (LAILA NUTRACEUTICALS, priority 2009, published 2013).

The subject of assay [1] is 3T3-L1 pre-adipocyte cells. Nature of the assay: Inhibition of lipid accumulation in differentiated adipocytes (Oil Red O). Particulars: 3T3-L1 adipocytes; for inhibition at 2.5 µg/mL: 2.5 μg/mL. It is filed as cell-based, mouse. On the procedure: One hundred thousand 3T3-L1 […] pre-adipocyte cells in Dulbecco's Modified Eagles Medium (DMEM) containing 10% Fetal Bovine Serum (FBS) were taken into each well of a 24-well plate and incubated for 48 h at 37° C. and 5% CO2. The differentiation of pre-adipocyte cells was initiated in a differentiation medium containing 10 μg/ml insulin, 1.0 μM dexamethasone, and 0.5 mM isobutylmethylxanthine (IBMX) for 48 h. After this the medium was replaced by DMEM containing 10 ug/ml insulin and incubated for 3 days. Then the differentiating cells were treated with […] of 7-hydroxyfrullanolide (1) or different natural analogs (structure numbers 3 to 11) or semi-synthetic analogs (structure numbers 12 to 25) of 7-HF. The cells were maintained in the medium for another 3-5 days. The cells incubated with 0.1% DMSO were considered as the vehicle control. After the incubation period, cells were washed with phosphate buffered saline (PBS) and fixed with 10% buffered formalin for 1 h at room temperature. One small aliquot of cell suspension was separated for cell counting in hemocytometer chamber. Fixed cells were stained with Oil Red O solution to measure the cellular neutral lipid accumulation. Briefly, cells were washed with PBS, fixed with 10% buffered formalin and stained with Oil Red O solution (0.5 g in 100 ml isopropanol) for […]. After removing the staining solution, the dye retained in the cells will be eluted into isopropanol and OD measured at 550 nm. The inhibition of fat accumulation in the treated cells was compared with the mock treated differentiated adipocytes. The treated and control cells were also analyzed and compared for inhibition of lipid accumulation visually under microscope and recorded digitally in suitable image capture system. The anti-adipogenic activity by 7-HF is depicted in Figure I and the percentage inhibition of lipid accumulation shown by 7-HF and its natural and semi-synthetic analogs is summarized in Table-1.

The test system of assay [2] is 3T3-L1 pre-adipocyte cells. The assay is described as follows: Pro-lipolytic activity in differentiated adipocytes (free glycerol release). It is filed as cell-based, mouse. Particulars: increase in glycerol release. On the procedure: The lipolytic activity was assessed in mature adipocytes as per the procedure of Chemicon International, USA, by measuring free glycerol secreted into the culture medium. One hundred thousand 3T3-L1 […] pre-adipocyte cells in Dulbecco's Modified Eagles Medium (DMEM) containing 10% Fetal Bovine Serum (FBS) were taken into each well of a 24-well plate and incubated for 48 h at 37° C. and 5% CO2. The differentiation of pre-adipocyte cells was initiated in a differentiation medium containing 10 µg/ml insulin, 1.0 µM dexamethasone, and 0.5 mM isobutylmethylxanthine (IBMX). The cells were differentiated for 5 days and then the culture medium was removed. The monolayer was washed twice with wash solution (Hank's balanced salt solution), and then 250 µL of incubation solution (Hank's balanced salt solution plus 2% bovine serum albumin) was added to the wells in triplicate in presence or absence of 7-hydroxyfrullanolide or its analogs or the extracts containing 7-HF, and the cells were further incubated for 16 h. To measure lipolysis, 200 μL of free glycerol assay reagent was added to 25 µL of culture supernatants and controls containing glycerol standard. The samples and the controls were incubated for 15 min, and the absorbance was read at 540 nm. A standard curve constructed from the glycerol was used to calculate the concentration of free glycerol in the culture supernatants. The percentage increase in glycerol concentration in the sample solutions compared to the control containing the known concentrations of glycerol corresponds to the percentage acceleration of lipolysis by test compound.

The term inhibition denotes the relative decrease from the control value, in per cent.

For the compound `C=C1C(=O)OC2C3=C(C)CCCC3(C)CCC12` (centres unmarked) [Compound-1, 3,3a,4,5,5a,6,7,8-octahydro-5a,9-dimethyl-3-methylenenaphtho[1,2-b]furan-2(9bH)-one], the inhibition at 2.5 µg/mL in assay [1] (Homo sapiens) is 19.4%. Also, in assay [2] (10 μg/mL), the “% acceleration of lipolysis” value amounted to 44.6%. On to `C=C1C(=O)O[C@@H]2[C@@]1(O)CC[C@@]1(C)CCCC(=C)[C@]21OO` [Compound-3, (3aR,5aR,9aR,9bR)-decahydro-9a-hydroperoxy-3a-hydroxy-5a-methyl-3,9-dimethylenenaphtho[1,2-b]furan-2(9bH)-one], for which the inhibition at 2.5 µg/mL in assay [1] (Homo sapiens) was determined as 40.5%. For the same compound, in assay [2] (5 μg/mL), the “% acceleration of lipolysis” value worked out at 39.6%. Take `C=C1C(=O)O[C@H]2C3=C(C)C(O)CC[C@]3(C)CC[C@@]12O` (stereo partly drawn) [Compound-10, (3aR,5aR,9bS)-3,3a,4,5,5a,6,7,8-octahydro-3a,8-dihydroxy-5a,9-dimethyl-3-methylenenaphtho[1,2-b]furan-2(9bH)-one]: the inhibition at 2 µg/mL in assay [1] (Homo sapiens, 2.0 μg/mL) came out at 45%. Regarding `C=C1C(=O)O[C@H]2C3=C(C)C(=O)CC[C@]3(C)CC[C@@]12O` [Compound-11, (3aR,5aS,9bS)-3a,4,5,5a,6,7-hexahydro-3a-hydroxy-5a,9-dimethyl-3-methylenenaphtho[1,2-b]furan-2,8(3H,9bH)-dione], in assay [1] (Homo sapiens, 2.0 μg/mL), the inhibition at 2 µg/mL was 8%. Regarding `CC1=CCC[C@]2(C)CCC3=C(C=O)C(=O)OC3=C12` [Compound-12, (R)-2,4,5,5a,6,7-hexahydro-5a,9-dimethyl-2-oxonaphtho[1,2-b]furan-3-carbaldehyde], the inhibition at 2 µg/mL in assay [1] (Homo sapiens, 2.0 μg/mL) worked out at 55%. Further, in assay [2] (5 μg/mL), the “% acceleration of lipolysis” value was 45.2%. Regarding `C=C1C(=O)OC2C1(O)CCC1(C)CCCC3(C)OC213` (centres unmarked) [Compound-13, 4,5-epoxy-7-hydroxyfrullanolide], in assay [1] (2.0 μg/mL), the “% inhibition of lipid accumulation” value worked out at 79.7%. The “% acceleration of lipolysis” value in assay [2] (5 μg/mL) amounted to 52.8%. Consider `CC1=CCC[C@]2(C)CCC3=C(CBr)C(=O)OC3=C12` [Compound-14, (R)-3-(bromomethyl)-5,5a,6,7-tetrahydro-5a,9-dimethylnaphtho[1,2-b]furan-2(4H)-one], for which, in assay [1] (Homo sapiens, 2.0 μg/mL), the inhibition at 2 µg/mL came out at 14%. For `CC1=C2[C@@H]3OC(=O)C(CN4CCOCC4)[C@]3(O)CC[C@@]2(C)CCC1` (stereo partly drawn) [Compound-17, (3aR,5aR,9bS)-3,3a,4,5,5a,6,7,8-octahydro-3a-hydroxy-5a,9-dimethyl-3-(morpholinomethyl)naphtho[1,2-b]furan-2(9bH)-one], the inhibition at 2 µg/mL in assay [1] (Homo sapiens, 2.0 μg/mL) is 36.2%. As for `CC1=C2[C@@H]3OC(=O)C(CN4CCOCC4)[C@]3(O)CC[C@@]2(C)CCC1O` (stereo partly drawn) [Compound-18, (3aR,5aR,9bS)-3,3a,4,5,5a,6,7,8-octahydro-3a,8-dihydroxy-5a,9-dimethyl-3-(morpholinomethyl)naphtho[1,2-b]furan-2(9bH)-one], the inhibition at 2.5 µg/mL in assay [1] (Homo sapiens) came to 133%. `CC1=C2[C@@H]3OC(=O)C(CN4CCCCC4)[C@]3(O)CC[C@@]2(C)CCC1` (stereo partly drawn) [Compound-19, (3aR,5aR,9bS)-3,3a,4,5,5a,6,7,8-octahydro-3a-hydroxy-5a,9-dimethyl-3-((piperidin-1-yl)methyl)naphtho[1,2-b]furan-2(9bH)-one]: the inhibition at 2 µg/mL in assay [1] (Homo sapiens, 2.0 μg/mL) was 23.3%. Regarding `CC1(O)CCC[C@]2(C)CCC3=C(CN4CCCCC4)C(=O)OC3=C12` (stereo partly drawn) [Compound-20, (5aR)-5,5a,6,7,8,9-hexahydro-9-hydroxy-5a,9-dimethyl-3-((piperidin-1-yl)methyl)naphtho[1,2-b]furan-2(4H)-one], the inhibition at 2 µg/mL in assay [1] (Homo sapiens, 2.0 μg/mL) was 7%.

For the compound `CC1=C2[C@@H]3OC(=O)C(CN4CCNCC4)[C@]3(O)CC[C@@]2(C)CCC1` (stereo partly drawn) [Compound-22, (3aR,5aR,9bS)-3,3a,4,5,5a,6,7,8-octahydro-3a-hydroxy-5a,9-dimethyl-3-((piperazin-1-yl)methyl)naphtho[1,2-b]furan-2(9bH)-one], in assay [1] (Homo sapiens, 1.0 μg/mL), the inhibition at 1 µg/mL was 15%. In the case of “Piperazine Bis-7-hydroxyfrullanolide [Compound-23]”, the “% inhibition of lipid accumulation” value in assay [1] (1.0 μg/mL) turned out to be 15.2%.
